Where a name gives a salt, the structure may show the parent alone.
Experiments:
human CB1 receptors = human CB1 receptors (Homo sapiens (Human), UniProt P21554); test: cAMP assay, CHO cells expressing human CB1 receptors; format: cell-based; conditions: functional cAMP assay, CHO cells expressing human CB1; read-out: human CB1 EC50
Protocol: (§1) CHO cells expressing human CB1 or CB2 receptors are seeded 17-24 hours prior to the experiment 50.000 cells per well in a black 96 well plate with flat clear bottom (Corning Costar #3904) in DMEM (Invitrogen No. 31331), 1×HT supplement, with 10% fetal calf serum and incubated at 5% CO2 and 37° C. in a humidified incubator. The growth medium was exchanged with Krebs Ringer Bicarbonate buffer with 1 mM IBMX and incubated at 30° C. for 30 min. Compounds were added to a final assay volume of 100 μl and incubated for 30 min at 30° C. Using the cAMP-Nano-TRF detection kit the assay (Roche Diagnostics) was stopped by the addition of 50 μl lysis reagent (Tris, NaCl, 1.5% Triton X100, 2.5% NP40, 10% NaN3) and 50 μl detection solutions (20 μM mAb Alexa700-cAMP 1:1, and 48 μM Ruthenium-2-AHA-cAMP) and shaken for 2 h at room temperature. The time-resolved energy transfer is measured by a TRF reader (Evotec Technologies GmbH), equipped with a ND:YAG laser as excitation source. The plate is measured twice with the excitation at 355 nm and at the emission with a delay of 100 ns and a gate of 100 ns, total exposure time 10 s at 730 (bandwidth 30 nm) or 645 nm (bandwidth 75 nm), respectively.
(§2) EC50 values were determined using Activity Base analysis (ID Business Solution, Limited).

human CB2 receptors = human CB2 receptors (Homo sapiens (Human), UniProt P34972); test: cAMP assay, CHO cells expressing human CB2 receptors; format: cell-based; conditions: functional cAMP assay, CHO cells expressing human CB2; read-out: human CB2 EC50
Protocol: as §1, §2

Chain of human CB1 receptors (P21554 whole entry): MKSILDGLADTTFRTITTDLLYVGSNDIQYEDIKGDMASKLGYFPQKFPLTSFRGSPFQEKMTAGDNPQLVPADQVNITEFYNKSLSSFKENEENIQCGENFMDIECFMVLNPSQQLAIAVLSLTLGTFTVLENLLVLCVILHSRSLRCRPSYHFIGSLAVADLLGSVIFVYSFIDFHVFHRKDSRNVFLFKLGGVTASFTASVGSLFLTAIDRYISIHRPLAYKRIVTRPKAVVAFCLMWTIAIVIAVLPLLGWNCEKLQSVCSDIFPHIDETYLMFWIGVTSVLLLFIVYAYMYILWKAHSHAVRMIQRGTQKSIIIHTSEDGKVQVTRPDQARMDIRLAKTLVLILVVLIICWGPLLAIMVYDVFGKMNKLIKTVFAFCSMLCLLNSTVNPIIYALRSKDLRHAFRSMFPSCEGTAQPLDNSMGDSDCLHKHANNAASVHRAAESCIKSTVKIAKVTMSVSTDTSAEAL
Chain of human CB2 receptors (P34972 whole entry): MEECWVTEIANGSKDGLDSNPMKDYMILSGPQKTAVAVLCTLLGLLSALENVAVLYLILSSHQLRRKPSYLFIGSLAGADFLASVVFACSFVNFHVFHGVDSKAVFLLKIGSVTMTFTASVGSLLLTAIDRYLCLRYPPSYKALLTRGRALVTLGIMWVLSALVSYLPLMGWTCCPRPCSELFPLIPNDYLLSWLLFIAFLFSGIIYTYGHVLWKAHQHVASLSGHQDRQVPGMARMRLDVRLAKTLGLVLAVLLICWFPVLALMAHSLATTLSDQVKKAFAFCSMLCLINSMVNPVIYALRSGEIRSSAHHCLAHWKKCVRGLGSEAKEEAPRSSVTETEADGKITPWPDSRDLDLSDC

| Structure (SMILES) | EC50 (human CB1 receptors) | EC50 (human CB2 receptors) |
| --- | --- | --- |
| NC(=O)CC1(NC(=O)c2ccc(OCC3CC3)c(Cl)n2)COC1 [Example 47, 6-Chloro-5-cyclopropylmethoxy-pyridine-2-carboxylic acid (3-carbamoylmethyl-oxetan-3-yl)-amide] | > 10 µM | 0.793 µM |
| CC(C)(CC(N)=O)NC(=O)c1ccc(N2CC(F)(F)C2)c(OCC2CC2)n1 [Example 48, 6-Cyclopropylmethoxy-5-(3,3-difluoro-azetidin-1-yl)-pyridine-2-carboxylic acid (2-carbamoyl-1,1-dimethyl-ethyl)-amide] | > 10 µM | 0.0092 µM |
| NC(=O)CC1(NC(=O)c2ccc(C3CC3)c(OCC(F)(F)C(F)(F)F)n2)COC1 [Example 49, 5-Cyclopropyl-6-(2,2,3,3,3-pentafluoro-propoxy)-pyridine-2-carboxylic acid (3-carbamoylmethyl-oxetan-3-yl)-amide] | > 10 µM | 0.0127 µM |
| COC(=O)CC1(NC(=O)c2ccc(N3CC(F)(F)C3)c(OCC3CC3)n2)CNC(=O)C1 (stereo not drawn) [Example 50, (3-{[6-Cyclopropylmethoxy-5-(3,3-difluoro-azetidin-1-yl)-pyridine-2-carbonyl]-amino}-5-oxo-pyrrolidin-3-yl)-acetic acid methyl ester] | > 10 µM | 0.423 µM |
| CCOC(=O)CC1(NC(=O)c2ccc(N3CC(F)(F)C3)c(OCC3CC3)n2)CS(=O)(=O)C1 [Example 51, (3-{[6-Cyclopropylmethoxy-5-(3,3-difluoro-azetidin-1-yl)-pyridine-2-carbonyl]-amino}-1,1-dioxo-1λ6-thietan-3-yl)-acetic acid ethyl ester] | > 10 µM | 0.057 µM |
| COC(=O)CC1(NC(=O)c2ccc(N3CC(F)(F)C3)c(OCC3CC3)n2)CCOCC1 [Example 52, (4-{[6-Cyclopropylmethoxy-5-(3,3-difluoro-azetidin-1-yl)-pyridine-2-carbonyl]-amino}-tetrahydro-pyran-4-yl)-acetic acid methyl ester] | > 10 µM | 0.0749 µM |
| NC(=O)CC1(NC(=O)c2ccc(N3CC(F)(F)C3)c(OCC3CC3)n2)CNC(=O)C1 (stereo not drawn) [Example 54, 6-Cyclopropylmethoxy-5-(3,3-difluoro-azetidin-1-yl)-pyridine-2-carboxylic acid (3-carbamoylmethyl-5-oxo-pyrrolidin-3-yl)-amide] | > 10 µM | 0.055 µM |
| NC(=O)CC(NC(=O)c1ccc(N2CC(F)(F)C2)c(OCC2CC2)n1)C(F)(F)F (stereo not drawn) [Example 55, 6-Cyclopropylmethoxy-5-(3,3-difluoro-azetidin-1-yl)-pyridine-2-carboxylic acid (1-carbamoylmethyl-2,2,2-trifluoro-ethyl)-amide] | > 10 µM | 0.003 µM |
| O=C(O)CC1(NC(=O)c2ccc(N3CC(F)(F)C3)c(OCC3CC3)n2)CS(=O)(=O)C1 [Example 56, (3-{[6-Cyclopropylmethoxy-5-(3,3-difluoro-azetidin-1-yl)-pyridine-2-carbonyl]-amino}-1,1-dioxo-1λ6-thietan-3-yl)-acetic acid] | > 10 µM | 0.003 µM |
| O=C(O)CC1(NC(=O)c2ccc(N3CC(F)(F)C3)c(OCC3CC3)n2)CCOCC1 [Example 57, (4-{[6-Cyclopropylmethoxy-5-(3,3-difluoro-azetidin-1-yl)-pyridine-2-carbonyl]-amino}-tetrahydro-pyran-4-yl)-acetic acid] | > 10 µM | 0.003 µM |
| NC(=O)CC1(NC(=O)c2ccc(N3CC(F)(F)C3)c(OCC3CC3)n2)CCOCC1 [Example 60, 6-Cyclopropylmethoxy-5-(3,3-difluoro-azetidin-1-yl)-pyridine-2-carboxylic acid (4-carbamoylmethyl-tetrahydro-pyran-4-yl)-amide] | > 10 µM | 0.0026 µM |
| NC(=O)CC1(NC(=O)c2ccc(N3CC(F)(F)C3)c(OCC3CC3)n2)CS(=O)(=O)C1 [Example 61, 6-Cyclopropylmethoxy-5-(3,3-difluoro-azetidin-1-yl)-pyridine-2-carboxylic acid (3-carbamoylmethyl-1,1-dioxo-1λ6-thietan-3-yl)-amide] | 7.75 µM | 0.001 µM |
| NC(=O)CC1(NC(=O)c2ccc(N3CC(F)(F)C3)c(OCC3CC3)n2)CCSCC1 [Example 62, 6-Cyclopropylmethoxy-5-(3,3-difluoro-azetidin-1-yl)-pyridine-2-carboxylic acid (4-carbamoylmethyl-tetrahydro-thiopyran-4-yl)-amide] | > 10 µM | 0.0025 µM |
| NC(=O)CC1(NC(=O)c2ccc(N3CC(F)(F)C3)c(OCC3CC3)n2)CCS(=O)(=O)CC1 [Example 63, N-[4-(2-Amino-2-oxoethyl)-1,1-dioxothian-4-yl]-6-(cyclopropylmethoxy)-5-(3,3-difluoroazetidin-1-yl)pyridine-2-carboxamide] | > 10 µM | 0.0555 µM |
| NC(=O)CC(NC(=O)c1ccc(C2CC2)c(OCC2CC2)n1)C1CCOC1 (stereo not drawn) [Example 64, N-[3-Amino-3-oxo-1-(oxolan-3-yl)propyl]-5-cyclopropyl-6-(cyclopropylmethoxy)pyridine-2-carboxamide] | > 10 µM | 0.0052 µM |
| NC(=O)CC1(NC(=O)c2ccc(N3CC(F)(F)C3)c(OCC3CC3)n2)CNC1 [Example 65, N-[3-(2-Amino-2-oxoethyl)azetidin-3-yl]-6-(cyclopropylmethoxy)-5-(3,3-difluoroazetidin-1-yl)pyridine-2-carboxamide] | > 10 µM | 0.443 µM |
| NC(=O)CC1(NC(=O)c2ccc(C3CC3)c(Cc3ccc(F)cc3)n2)CCNCC1 [Example 66, N-[4-(2-Amino-2-oxoethyl)piperidin-4-yl]-5-cyclopropyl-6-[(4-fluorophenyl)methyl]pyridine-2-carboxamide; hydrochloride] | > 10 µM | 0.0013 µM |
| NC(=O)CC(NC(=O)c1ccc(N2CC(F)(F)C2)c(OCC2CC2)n1)C1CCOC1 (stereo not drawn) [Example 67, N-[3-Amino-3-oxo-1-(oxolan-3-yl)propyl]-6-(cyclopropylmethoxy)-5-(3,3-difluoroazetidin-1-yl)pyridine-2-carboxamide] | > 10 µM | 0.0083 µM |
| COC(=O)CC1(NC(=O)c2ccc(N3CC(F)(F)C3)c(OCC3CC3)n2)CCC1 [Example 68, Methyl 2-[1-[[6-(cyclopropylmethoxy)-5-(3,3-difluoroazetidin-1-yl)pyridine-2-carbonyl]amino]cyclobutyl]acetate] | > 10 µM | 0.0011 µM |
| O=C(O)CC1(NC(=O)c2ccc(N3CC(F)(F)C3)c(OCC3CC3)n2)CCC1 [Example 69, 2-[1-[[6-(Cyclopropylmethoxy)-5-(3,3-difluoroazetidin-1-yl)pyridine-2-carbonyl]amino]cyclobutyl]acetic acid] | > 10 µM | 0.302 µM |
| NC(=O)CC1(NC(=O)c2ccc(N3CC(F)(F)C3)c(OCC3CC3)n2)CCC1 [Example 70, N-[1-(2-Amino-2-oxoethyl)cyclobutyl]-6-(cyclopropylmethoxy)-5-(3,3-difluoroazetidin-1-yl)pyridine-2-carboxamide] | > 10 µM | 0.0006 µM |
| CCOC(=O)C1(CNC(=O)c2ccc(N3CC(F)(F)C3)c(OCC3CC3)n2)CC1 [Example 71, Ethyl 1-[[[6-(cyclopropylmethoxy)-5-(3,3-difluoroazetidin-1-yl)pyridine-2-carbonyl]amino]methyl]cyclopropane-1-carboxylate] | > 10 µM | 0.0606 µM |
| CC(=O)N1CCC(CC(N)=O)(NC(=O)c2ccc(C3CC3)c(Cc3ccc(F)cc3)n2)CC1 [Example 72, N-[1-Acetyl-4-(2-amino-2-oxoethyl)piperidin-4-yl]-5-cyclopropyl-6-[(4-fluorophenyl)methyl]pyridine-2-carboxamide] | > 10 µM | 0.005 µM |
| CC(=O)N1CC(CC(N)=O)(NC(=O)c2ccc(N3CC(F)(F)C3)c(OCC3CC3)n2)C1 [Example 73, N-[1-Acetyl-3-(2-amino-2-oxoethyl)azetidin-3-yl]-6-(cyclopropylmethoxy)-5-(3,3-difluoroazetidin-1-yl)pyridine-2-carboxamide] | > 10 µM | 0.12 µM |
| NC(=O)CC1(NC(=O)c2ccc(C3CC3)c(Cc3ccc(F)cc3)n2)CN(C(=O)OCc2ccccc2)C1 [Example 74, Benzyl 3-(2-amino-2-oxoethyl)-3-[[5-cyclopropyl-6-[(4-fluorophenyl)methyl]pyridine-2-carbonyl]amino]azetidine-1-carboxylate] | > 10 µM | 0.039 µM |
| CC(C)CSc1nc(C(=O)NC2(CC(N)=O)CS(=O)(=O)C2)ccc1C1CC1 [Example 75, N-[3-(2-Amino-2-oxoethyl)-1,1-dioxothietan-3-yl]-5-cyclopropyl-6-(2-methylpropylsulfanyl)pyridine-2-carboxamide] | > 10 µM | 0.0158 µM |
| NC(=O)CC1(NC(=O)c2ccc(C3CC3)c(OCC3CC3)n2)CS(=O)(=O)C1 [Example 77, N-[3-(2-Amino-2-oxoethyl)-1,1-dioxothietan-3-yl]-5-cyclopropyl-6-(cyclopropylmethoxy)pyridine-2-carboxamide] | > 10 µM | 0.0007 µM |

From patent US9522886B2, “Pyridine derivatives” (Hoffmann-La Roche Inc., priority 2012, dated 2016)
